Among the data in US20240409585A1, “MACROCYCLIC IMMUNOMODULATORS” (priority 2021, published 2024) are IC50 values, retold here.

Bridge positions count the residues as written; N and C are the ends. Square brackets hold non-standard residues; d marks the D form. Peptide text beside a SMILES is read from it. * marks the point of attachment. ξ: configuration not given here. Phe(4-COOH) = N[C@@H](Cc1ccc(C(=O)O)cc1)C(=O)O; Phe(4-CH2NH2) = NCc1ccc(C[C@H](N)C(=O)O)cc1; Bip = N[C@@H](Cc1ccc(-c2ccccc2)cc1)C(=O)O; Phe(4-CN) = N#Cc1ccc(C[C@H](N)C(=O)O)cc1; Phe(3-Me) = Cc1cccc(C[C@H](N)C(=O)O)c1; Val(3-OH) = CC(C)(O)[C@H](N)C(=O)O; aIle = CC[C@@H](C)[C@H](N)C(=O)O; 4Pal = N[C@@H](Cc1ccncc1)C(=O)O; Cha = N[C@@H](CC1CCCCC1)C(=O)O; Cit = NC(=O)NCCC[C@H](N)C(=O)O; Ile(3ξ) = CCC(C)[C@H](N)C(=O)O; Thr(3ξ) = CC(O)[C@H](N)C(=O)O; Carboxymethyl = O=C(O)C*; NMeA = CN[C@@H](C)C(=O)O; Dab = NCC[C@H](N)C(=O)O; Dap = NC[C@H](N)C(=O)O; NH(CH2)3NH2 = NCCCN*; ξV = CC(C)C(N)C(=O)O

T1 sequence (Q15116 25-288): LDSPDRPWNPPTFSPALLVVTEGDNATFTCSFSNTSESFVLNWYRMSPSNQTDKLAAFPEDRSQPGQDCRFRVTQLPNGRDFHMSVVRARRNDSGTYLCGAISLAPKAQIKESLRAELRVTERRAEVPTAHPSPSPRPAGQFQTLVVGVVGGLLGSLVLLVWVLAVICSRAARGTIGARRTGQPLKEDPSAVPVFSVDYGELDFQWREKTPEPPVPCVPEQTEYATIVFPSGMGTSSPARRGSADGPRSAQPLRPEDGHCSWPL

The test addresses T1, PE-labeled human PD-L1-Ig binding to Jurkat cell line over-expressing human PD-1 (Jurkat-PD-1) (Homo sapiens, UniProt Q15116).
T1 construct: expressed in transfected cells; host or cells: Jurkat
Nature of the test: Jurkat-PD-1 Cell Binding High-Content Screening Assay (CBA): Method 1. The note with it: Jurkat-hPD-1 cells, PE-labeled PD-L1-Ig 20 nM final; read-out: Jurkat HPDL1 PD1 IC50 (uM) (Method 1).
Take `CC(=O)NCCCC[C@@H]1NC(=O)[C@H](Cc2ccc(-c3ccccc3)cc2)NC(=O)[C@H](Cc2ccc(O)cc2)NC(=O)[C@H](Cc2cccc(C)c2)NC(=O)[C@H](CC(=O)O)NC(=O)[C@H](Cc2ccc(OCC(=O)O)cc2)NC(=O)[C@H](C(C)O)NC(=O)CSC[C@@H](C(N)=O)NC(=O)[C@H](C(C)O)NC(=O)[C@H](C(C)C)NC(=O)[C@H](CC2CCCCC2)NC(=O)[C@H](CCN)NC(=O)[C@@H](CC(C)C)NC(=O)[C@H](C)N(C)C1=O` (stereo partly drawn) [Compound 2255] ({CH2CO}-[Thr(3ξ)]Y(Carboxymethyl)D[Phe(3-Me)]Y[Bip]K(Ac)[NMeA][dL][Dab][Cha]V[Thr(3ξ)]C-NH2; thioether N-14): the IC50 came out at 0.06 µM.
Next, `CC(C)C[C@@H]1NC(=O)[C@H](CCN)NC(=O)[C@@H](CC(C)C)NC(=O)[C@H](C)N(C)C(=O)[C@H]([C@@H](C)O)NC(=O)[C@H](Cc2ccc(-c3ccccc3)cc2)NC(=O)[C@H](C(C)C)NC(=O)[C@H](Cc2c[nH]c3ccccc23)NC(=O)[C@H](CC(=O)O)NC(=O)[C@H](Cc2ccc(O)cc2)NC(=O)[C@H](CC(N)=O)NC(=O)CSC[C@@H](C(=O)N[C@@H](C)C(N)=O)NC(=O)[C@H]([C@@H](C)O)NC(=O)[C@H](C(C)C)NC1=O` [Compound 1300] ({CH2CO}-NYDWV[Bip]T[NMeA][dL][Dab]LVTCA-NH2; thioether N-14): 0.02 µM.
Next, `CC(C)C[C@@H]1NC(=O)[C@H](CC(N)=O)NC(=O)[C@@H](CC(C)C)NC(=O)[C@H](C)N(C)C(=O)[C@H](CCCNC(N)=O)NC(=O)[C@H](Cc2ccc(-c3ccccc3)cc2)NC(=O)[C@H](C(C)C)NC(=O)[C@H](Cc2c[nH]c3ccccc23)NC(=O)[C@H](CC(=O)O)NC(=O)[C@H](Cc2ccc(O)cc2)NC(=O)[C@H](Cc2ccccc2)NC(=O)CSC[C@@H](C(=O)N[C@@H](C)C(=O)N[C@@H](CN)C(=O)O)NC(=O)[C@H](CO)NC(=O)[C@H](C(C)C)NC1=O` [Compound 2004] ({CH2CO}-FYDWV[Bip][Cit][NMeA][dL]NLVSCA[Dap]-OH; thioether N-14): 0.02 µM; `CC(C)C[C@@H]1NC(=O)[C@H](CCN)NC(=O)[C@@H](CC(C)C)NC(=O)[C@H](C)N(C)C(=O)[C@H](CCCNC(N)=O)NC(=O)[C@H](Cc2ccc(-c3ccccc3)cc2)NC(=O)[C@H](C(C)C)NC(=O)[C@H](Cc2c[nH]c3ccccc23)NC(=O)[C@H](CC(=O)O)NC(=O)[C@H](Cc2ccc(C#N)cc2)NC(=O)[C@H](CC(N)=O)NC(=O)CSC[C@@H](C(=O)N[C@@H](C)C(N)=O)NC(=O)[C@H]([C@@H](C)O)NC(=O)[C@H](C(C)C)NC1=O` [Compound 1312] ({CH2CO}-N[Phe(4-CN)]DWV[Bip][Cit][NMeA][dL][Dab]LVTCA-NH2; thioether N-14): 0.05 µM; `CC[C@@H](C)[C@@H]1NC(=O)[C@H](Cc2ccc(-c3ccccc3)cc2)NC(=O)[C@H](CC(C)C)NC(=O)[C@H](Cc2c[nH]c3ccccc23)NC(=O)[C@H](CC(=O)O)NC(=O)[C@H](Cc2ccc(C(=O)O)cc2)NC(=O)[C@H](Cc2ccc(OCC(=O)O)cc2)NC(=O)CSC[C@@H](C(=O)N[C@@H](CCCCN)C(N)=O)NC(=O)[C@H](CC(=O)O)NC(=O)C(C(C)C)NC(=O)[C@H](CC(C)C)NC(=O)[C@H](CC(N)=O)NC(=O)[C@@H](CC(C)C)NC(=O)[C@H](C)N(C)C1=O` (stereo partly drawn) [Compound 2105] ({CH2CO}-Y(Carboxymethyl)[Phe(4-COOH)]DWL[Bip][aIle][NMeA][dL]NL[ξV]DCK-NH2; thioether N-14): 0.1 µM.
`CC(C)C[C@H]1NC(=O)[C@H](C)N(C)C(=O)[C@H](C(C)C)NC(=O)[C@H](Cc2ccc(-c3ccccc3)cc2)NC(=O)[C@H](C(C)C)NC(=O)[C@H](Cc2c[nH]c3ccccc23)NC(=O)[C@H](CC(=O)O)NC(=O)[C@H](Cc2ccc(O)cc2)NC(=O)[C@H](CN)NC(=O)CSC[C@@H](C(=O)N[C@@H](C)C(N)=O)NC(=O)[C@H]([C@@H](C)O)NC(=O)[C@H](C(C)C)NC(=O)[C@H](CC2CCCCC2)NC(=O)[C@H](CCCNC(=N)N)NC1=O` [Compound 1485] ({CH2CO}-[Dap]YDWV[Bip]V[NMeA][dL]R[Cha]VTCA-NH2; thioether N-14): the IC50 turned out to be 0.39 µM.
In the case of `CCC(C)[C@@H]1NC(=O)[C@H](Cc2ccc(-c3ccccc3)cc2)NC(=O)[C@H](C(C)C)NC(=O)[C@H](Cc2c[nH]c3ccccc23)NC(=O)[C@H](CC(=O)O)NC(=O)[C@H](Cc2ccc(O)cc2)NC(=O)[C@H](C(C)O)NC(=O)CSC[C@@H](C(=O)NCCCN)NC(=O)[C@H](C(C)O)NC(=O)[C@H](C(C)(C)O)NC(=O)[C@H](CC2CCCCC2)NC(=O)[C@H](CC(N)=O)NC(=O)[C@@H](CC(C)C)NC(=O)[C@H](C)N(C)C1=O` (stereo partly drawn) [Compound 2266] ({CH2CO}-[Thr(3ξ)]YDWV[Bip][Ile(3ξ)][NMeA][dL]N[Cha][Val(3-OH)][Thr(3ξ)]C-{NH(CH2)3NH2}; thioether N-14) it was 0.15 µM.
In the case of `CC(C)C[C@@H]1NC(=O)[C@H](CCN)NC(=O)[C@@H](CC(C)C)NC(=O)[C@H](C)N(C)C(=O)[C@H](CCCNC(N)=O)NC(=O)[C@H](Cc2ccc(-c3ccccc3)cc2)NC(=O)[C@H](C(C)C)NC(=O)[C@H](Cc2c[nH]c3ccccc23)NC(=O)[C@H](CC(=O)O)NC(=O)[C@H](Cc2ccc(OCC(=O)O)cc2)NC(=O)[C@H](CN)NC(=O)CSC[C@@H](C(=O)N[C@@H](C)C(N)=O)NC(=O)[C@H]([C@@H](C)O)NC(=O)[C@H](C(C)C)NC1=O` [Compound 1566] ({CH2CO}-[Dap]Y(Carboxymethyl)DWV[Bip][Cit][NMeA][dL][Dab]LVTCA-NH2; thioether N-14), the concentration for half-maximal inhibition (IC50) is 0.04 µM.
Regarding `CC(C)C[C@@H]1NC(=O)[C@H](CCN)NC(=O)[C@@H](CC(C)C)NC(=O)[C@H](C)N(C)C(=O)[C@H](CCCNC(=N)N)NC(=O)[C@H](Cc2ccc(-c3ccccc3)cc2)NC(=O)[C@H](C(C)C)NC(=O)[C@H](Cc2c[nH]c3ccccc23)NC(=O)[C@H](CC(=O)O)NC(=O)[C@H](Cc2ccc(C(=O)O)cc2)NC(=O)[C@H](CN)NC(=O)CSC[C@@H](C(=O)N[C@@H](C)C(N)=O)NC(=O)[C@H]([C@@H](C)O)NC(=O)[C@H](C(C)C)NC1=O` [Compound 1451] ({CH2CO}-[Dap][Phe(4-COOH)]DWV[Bip]R[NMeA][dL][Dab]LVTCA-NH2; thioether N-14), the IC50 stood at 0.08 µM.
In the case of `CCC(C)[C@@H]1NC(=O)[C@H](Cc2ccc(-c3ccccc3)cc2)NC(=O)[C@H](C(C)C)NC(=O)[C@H](Cc2c[nH]c3ccccc23)NC(=O)[C@H](CC(=O)O)NC(=O)[C@H](Cc2ccc(O)cc2)NC(=O)[C@H](Cc2ccc(CN)cc2)NC(=O)CSC[C@@H](C(=O)N[C@@H](C)C(N)=O)NC(=O)[C@H](C(C)O)NC(=O)[C@H](C(C)C)NC(=O)[C@H](CC2CCCCC2)NC(=O)[C@H](CC(N)=O)NC(=O)[C@@H](CC(C)C)NC(=O)[C@H](C)N(C)C1=O` (stereo partly drawn) [Compound 2047] ({CH2CO}-[Phe(4-CH2NH2)]YDWV[Bip][Ile(3ξ)][NMeA][dL]N[Cha]V[Thr(3ξ)]CA-NH2; thioether N-14) it was 0.06 µM; in that of `Cc1cccc(C[C@@H]2NC(=O)[C@H](CC(=O)O)NC(=O)[C@H](Cc3ccc(O)cc3)NC(=O)[C@H](CC(N)=O)NC(=O)CSC[C@@H](C(=O)N[C@H](C)C(N)=O)NC(=O)[C@H]([C@@H](C)O)NC(=O)[C@H](C(C)C)NC(=O)[C@H](CC3CCCCC3)NC(=O)[C@H](CCN)NC(=O)[C@@H](CC(C)C)NC(=O)[C@H](C)N(C)C(=O)[C@H](CCCNC(N)=O)NC(=O)[C@H](Cc3ccc(-c4ccccc4)cc3)NC(=O)[C@H](C(C)(C)O)NC2=O)c1` [Compound 1704] ({CH2CO}-NYD[Phe(3-Me)][Val(3-OH)][Bip][Cit][NMeA][dL][Dab][Cha]VTC[dA]-NH2; thioether N-14), 0.15 µM.
In the case of `CC(C)C[C@@H]1NC(=O)[C@H](CCCNC(=N)N)NC(=O)[C@@H](CC(C)C)NC(=O)[C@H](C)N(C)C(=O)[C@H](CCCNC(=N)N)NC(=O)[C@H](Cc2ccc(-c3ccccc3)cc2)NC(=O)[C@H](C(C)C)NC(=O)[C@H](Cc2c[nH]c3ccccc23)NC(=O)[C@H](CC(=O)O)NC(=O)[C@H](Cc2ccc(O)cc2)NC(=O)[C@H](CC(N)=O)NC(=O)CSC[C@@H](C(=O)NCC(N)=O)NC(=O)[C@H]([C@@H](C)O)NC(=O)[C@H](C(C)C)NC1=O` [Compound 1244] ({CH2CO}-NYDWV[Bip]R[NMeA][dL]RLVTCG-NH2; thioether N-14) it was 0.04 µM; in that of `Cc1cccc(C[C@@H]2NC(=O)[C@H](CC(=O)O)NC(=O)[C@H](Cc3ccc(OCC(=O)O)cc3)NC(=O)[C@H](Cc3ccncc3)NC(=O)CSC[C@@H](C(N)=O)NC(=O)[C@H](CC(=O)O)NC(=O)[C@H](C(C)C)NC(=O)[C@H](CC3CCCCC3)NC(=O)[C@H](CCN)NC(=O)[C@@H](CC(C)C)NC(=O)[C@H](C)N(C)C(=O)[C@H](Cc3ccc(OCC(=O)O)cc3)NC(=O)[C@H](Cc3ccc(-c4ccccc4)cc3)NC(=O)[C@H](Cc3ccc(OCC(=O)O)cc3)NC2=O)c1` [Compound 1658] ({CH2CO}-[4Pal]Y(Carboxymethyl)D[Phe(3-Me)]Y(Carboxymethyl)[Bip]Y(Carboxymethyl)[NMeA][dL][Dab][Cha]VDC-NH2; thioether N-14), 0.03 µM.
As for `CCC(C)[C@@H]1NC(=O)[C@H](Cc2ccc(-c3ccccc3)cc2)NC(=O)[C@H](CC(C)C)NC(=O)[C@H](Cc2c[nH]c3ccccc23)NC(=O)[C@H](CC(=O)O)NC(=O)[C@H](Cc2ccc(C(=O)O)cc2)NC(=O)[C@H](Cc2ccc(OCC(=O)O)cc2)NC(=O)CSC[C@@H](C(=O)N[C@@H](CC(N)=O)C(N)=O)NC(=O)[C@H]([C@@H](C)O)NC(=O)[C@H](C(C)C)NC(=O)[C@H](CC2CCCCC2)NC(=O)[C@H](CCN)NC(=O)[C@@H](CC(C)C)NC(=O)[C@H](C)N(C)C1=O` (stereo partly drawn) [Compound 1922] ({CH2CO}-Y(Carboxymethyl)[Phe(4-COOH)]DWL[Bip][Ile(3ξ)][NMeA][dL][Dab][Cha]VTCN-NH2; thioether N-14), the IC50 amounted to 0.04 µM.
